The target in assay [1] is Myc proto-oncogene protein (Homo sapiens) (UniProt P01106). Nature of the assay: Inhibition of c-Myc in human LY7 cells assessed as reduction in eIF4B expression at 5 nM incubated for 24 hrs by Western blot analysis. The format is cell-based. Background: A western blot detects proteins with antibodies after separation by electrophoresis.
For assay [2] the target is unchanged. Briefly: Inhibition of c-Myc in human LY10 cells assessed as reduction in eIF4B expression at 2 nM incubated for 24 hrs by Western blot analysis. The format is cell-based.
For assay [3] the target is unchanged. Briefly: Inhibition of c-Myc in human LY10 cells assessed as reduction in E2F1 expression at 2 nM incubated for 24 hrs by Western blot analysis. Type of assay: cell-based.
Assay [4] shares this target. Briefly: Inhibition of c-Myc in human LY7 cells assessed as reduction in E2F1 expression at 5 nM incubated for 24 hrs by Western blot analysis. The format is cell-based.
The target in assay [5] is T1, Casein kinase I isoform epsilon (Homo sapiens, UniProt P49674). Nature of the assay: Inhibition of recombinant human full-length N-terminal GST-tagged CK1epsilon expressed in baculovirus infected Sf9 insect cells using casein as substrate measured after 60 mins by ADP-glo kinase assay. (In general: In ADP-Glo the light output rises with the ADP produced.)
Target sequence in this assay (P49674 whole entry, canonical isoform): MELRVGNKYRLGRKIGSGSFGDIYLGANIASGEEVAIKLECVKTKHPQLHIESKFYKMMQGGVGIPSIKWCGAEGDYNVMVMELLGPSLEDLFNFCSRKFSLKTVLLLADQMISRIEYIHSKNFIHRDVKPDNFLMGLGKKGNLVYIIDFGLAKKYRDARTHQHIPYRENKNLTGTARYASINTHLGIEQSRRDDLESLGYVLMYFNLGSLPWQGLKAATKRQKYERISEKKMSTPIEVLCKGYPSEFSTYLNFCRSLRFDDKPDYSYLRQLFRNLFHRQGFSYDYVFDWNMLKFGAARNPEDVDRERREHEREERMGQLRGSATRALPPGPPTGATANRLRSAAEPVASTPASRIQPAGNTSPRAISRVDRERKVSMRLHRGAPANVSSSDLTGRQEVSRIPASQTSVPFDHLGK
Assay [6] concerns the target T1, Casein kinase I isoform epsilon. Briefly: Inhibition of recombinant human full-length N-terminal GST-tagged CK1epsilon expressed in baculovirus infected Sf9 insect cells at 50 uM using casein as substrate measured after 60 mins by ADP-glo kinase assay relative to control.
Target sequence in this assay (P49674 whole entry, looked up, canonical isoform): as the sequence (P49674 whole entry, canonical isoform) above
For assay [7] the target is unchanged. Briefly: Inhibition of CK1epsilon in human LY7 cells assessed as reduction in 4E-BP1 phosphorylation at 25 uM incubated for 24 hrs in presence of […] inhibitor PF4800567 by Western blot analysis. The format is cell-based.
Target sequence in this assay (P49674 whole entry, looked up, canonical isoform): as the sequence (P49674 whole entry, canonical isoform) above
Assay [8] has the same target. Nature of the assay: Inhibition of CK1epsilon in human OCILY7 cells transfected with c-myc-5'-UTR-luciferase construct assessed as reduction in c-myc translation at 15 uM incubated for 24 hrs by luciferase reporter gene assay. The format is cell-based. (In general: In a reporter assay the amount or activity of a reporter protein is the signal.)
Target sequence in this assay (P49674 whole entry, looked up, canonical isoform): as the sequence (P49674 whole entry, canonical isoform) above
For assay [9] the target is unchanged. Briefly: Inhibition of CK1epsilon in human LY7 cells assessed as reduction in c-Myc expression at 15 to 50 uM measured after 24 hrs by Western blot analysis. Type of assay: cell-based. The conditions noted are these: dose 15-50 µM.
Target sequence in this assay (P49674 whole entry, looked up, canonical isoform): as the sequence (P49674 whole entry, canonical isoform) above
The target is the same in assay [10]. Nature of the assay: Inhibition of CK1epsilon in human LY7 cells assessed as reduction in c-Myc expression at 25 uM incubated for 24 hrs in presence of […] inhibitor PF4800567 by Western blot analysis. The format is cell-based.
Target sequence in this assay (P49674 whole entry, looked up, canonical isoform): as the sequence (P49674 whole entry, canonical isoform) above
Assay [11] has the same target. Nature of the assay: Inhibition of CK1epsilon in human LY7 cells assessed as reduction in CK1epsilon autophosphorylation at 1 uM preincubated for 1 hr followed by addition of PP2A inhibitor calyculin A and measured after 15 to 60 mins by Western blot analysis. The conditions noted are these: time lower 75.0 min, time upper […]. The format is cell-based.
Target sequence in this assay (P49674 whole entry, looked up, canonical isoform): as the sequence (P49674 whole entry, canonical isoform) above
The target is the same in assay [12]. Briefly: Inhibition of CK1epsilon in human LY7 cells assessed as reduction in CK1epsilon autophosphorylation at 10 to 25 uM preincubated for 1 hr followed by addition of PP2A inhibitor calyculin A and measured after 15 to 60 mins by Western blot analysis. Type of assay: cell-based. Particulars: dose 10-25 µM, time lower 75.0 min, time upper […].
Assay [13] has as its target Serine/threonine-protein phosphatase 2A catalytic subunit alpha isoform (Homo sapiens) (UniProt P67775). Nature of the assay: Inhibition of PP2A in human LY7 cells assessed as increase in CK1epsilon autophosphorylation by Western blot analysis. The conditions noted are these: time lower […], time upper 30.0 min. The format is cell-based.

The source made the active and inactive calls. The calls are words filed in the database; no cut-off is given here.

Chain of Myc proto-oncogene protein (Homo sapiens) (P01106 whole entry): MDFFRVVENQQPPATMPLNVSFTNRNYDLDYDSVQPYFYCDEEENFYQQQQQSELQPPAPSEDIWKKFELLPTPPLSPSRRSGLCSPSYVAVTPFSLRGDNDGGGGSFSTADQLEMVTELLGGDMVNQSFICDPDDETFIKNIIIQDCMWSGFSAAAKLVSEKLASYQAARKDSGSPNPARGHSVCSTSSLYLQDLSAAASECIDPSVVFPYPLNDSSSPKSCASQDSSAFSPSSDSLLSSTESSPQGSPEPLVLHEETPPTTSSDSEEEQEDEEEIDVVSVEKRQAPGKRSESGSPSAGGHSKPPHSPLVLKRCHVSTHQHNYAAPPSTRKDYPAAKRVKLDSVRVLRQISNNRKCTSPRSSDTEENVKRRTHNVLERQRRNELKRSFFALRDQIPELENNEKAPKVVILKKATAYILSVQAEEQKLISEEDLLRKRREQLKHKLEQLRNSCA
Chain of Serine/threonine-protein phosphatase 2A catalytic subunit alpha isoform (Homo sapiens) (P67775 whole entry, canonical isoform): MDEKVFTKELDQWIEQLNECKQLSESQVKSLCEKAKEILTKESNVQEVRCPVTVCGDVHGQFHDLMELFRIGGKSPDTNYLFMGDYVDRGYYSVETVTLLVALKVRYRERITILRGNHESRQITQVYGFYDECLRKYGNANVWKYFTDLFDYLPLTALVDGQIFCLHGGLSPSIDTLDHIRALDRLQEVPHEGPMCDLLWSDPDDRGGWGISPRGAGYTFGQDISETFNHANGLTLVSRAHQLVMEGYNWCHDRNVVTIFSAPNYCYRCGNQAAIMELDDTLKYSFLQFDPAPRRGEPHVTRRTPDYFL

Broadly, the inhibition is the relative decrease from the control value, in per cent. Consider `CC(C)C[C@H](NC(=O)[C@H](Cc1ccccc1)NC(=O)c1cnccn1)B(O)O`, for which the inhibition result in assay [1], in assay [2], in assay [3] and in assay [4] was “inactive” each time.

Usually EC50 stands for the concentration at which the effect is half-maximal. As for `CC[C@@H](c1nc2cccc(F)c2c(=O)n1-c1ccccc1)n1nc(-c2ccc(OC(C)C)c(F)c2)c2c(N)ncnc21`, the EC50 in [5] was determined as 81.2 µM. Also, the inhibition in [6] is below 50%.

On to `CC(C)C[C@H](NC(=O)[C@H](CCc1ccccc1)NC(=O)CN1CCOCC1)C(=O)N[C@@H](Cc1ccccc1)C(=O)N[C@@H](CC(C)C)C(=O)[C@@]1(C)CO1`, for which the inhibition entry in assay [1], in assay [2], in assay [3] and in [4] was “inactive” throughout.

Take `Nc1ncnc2c1c(COc1cccc(Cl)c1)nn2C1CCOCC1`: the inhibition result in [7], in [9], in assay [10] and in [11] was “Active” throughout. In [5], the concentration for a half-maximal effect (EC50) came to 0.0074 µM. In addition, the inhibition entry in assay [8] was “inactive”.

Regarding `CC(C)Oc1ccc(-c2nn([C@@H](C)c3nc4cccc(F)c4c(=O)n3-c3ccccc3)c3ncnc(N)c23)cc1F`, the EC50 in [5] is 9.36 µM. Besides, in [12], the inhibition entry is “Active”.

For `COC[C@@H]([C@H](O)[C@H](O)C(=O)NCC[C@H](C)c1nc(/C=C/C[C@@H]2O[C@]3(C[C@@H](O)[C@@H]2C)O[C@H]([C@H](C[C@H](O)[C@H](C)[C@H](O)[C@H](C)/C=C(C)/C(C)=C/C=C/C(C)=C\C#N)OC)[C@H](OP(=O)(O)O)C3(C)C)co1)N(C)C`, in assay [13], the inhibition entry was “Dose-Dependent Effect”.

The values above are taken from ChEMBL document CHEMBL5715954, “Silencing c-Myc translation as a therapeutic strategy through targeting PI3Kδ and CK1ε in hematological malignancies” (Blood, 2017).
